From patent publication US20080145858A1, “DETECTION AND IDENTIFICATION OF TOXICANTS BY MEASUREMENT OF GENE […]” (priority 2003, published 2008)

Tested on: Xenopus laevis cleavage stage embryos (stage 8)
Experiment: Xenopus cDNA microarray, differential gene expression after PMA treatment during cleavage stage (Group I)
Assay type: in vivo
Details: PMA 100 ng/ml, stage 8
Excerpt: Specifically, the method and screen of the present invention function as follows. EST clones produced from Xenopus laevis unfertilized eggs were used in the present study with ˜1,200 EST clones from a 18,500 EST clone set selected for production of a Xenopus cDNA microarray. The Xenopus microarray was used to measure the effect of chemical treatment on Xenopus embryo gene regulation. The chemical treatment was a phorbol ester, PMA. Xenopus eggs were obtained from females induced for ovulation and fertilized in vitro. Control Xenopus laevis embryos were allowed to develop to stage 8 blastula or stage 15 neurula. Treated embryos were exposed to PMA during cleavage stage or during neurulation with end points of blastula (stage 8) or neurula (stage 15). Specifically, PMA 100 ng/ml was added to the incubation media during cleavage stages for evaluation in stage 8 embryo or PMA was added during neural induction for evaluation in stage 15 embryos. RNA extracted from the embryos was used to generate fluorescent cDNA probes for Xenopus microarray analyses to measure differential gene expression with and without the phorbol ester treatment. Analysis was performed using paired RNA samples to compare PMA-treated and untreated embryos: Group I measured the effects of PMA-treatment during the cleavage stage in stage 8 embryos and Group II measured the effects of PMA-treatment during neurulation in stage 15 embryos. Group III measured the change in gene expression between stage 8 and stage 15 embryos.
cDNA fragments were obtained by PCR replication of Xenopus laevis unfertilized egg cDNA inserts, purified, quantitated and loaded onto glass chips by robotics. In addition to the selected ˜1,200 genes, 64 lambda Q gene, an internal control cDNA (Genomic Solutions, Inc., Ann Arbor, Mich.) was loaded on the chip. The insert DNA from ˜1,200 clones were PCR amplified using forward and reverse primers (GF.200 primers, Research Genetics, Huntsville, Ala.). A second PCR was carried out using 1 μl of the primary PCR (20 μl) for template. Excess dNTPs, polymerase and other PCR artifacts were removed from the secondary PCR reactions using Millipore Multiscreen plates (Millipore Corporation, Bedford, Mass.) using the standard protocol. The purity of the PCR products was assessed by electrophoresis and documented using an Alphalmager 1000 Digital Imaging System (Alpha Innotech Corporation, San Leandro, Calif.). The DNA obtained by PCR was quantitated using PicoGreen (Molecular Probes, Eugene, Oreg.). The DNA was denatured and arrayed onto amino-silane coated microscope slides (CMT-GAPS coated slides, Corning, Corning, N.Y.) using a Flexys robotic workstation (Genomic Solutions Inc.). The ˜1,200 PCR products were arrayed in duplicate on each slide and cross-linked. Each gene chip contained duplicate cDNA samples.
Total RNA was prepared from embryos treated in three separate dishes per treatment group that were pooled. Total RNA was isolated from the frog embryos (1,200 embryos for each probe production) using TRIzol extraction (Gibco BRL, Grand Island, N.Y.) and Qiagen RNeasy kits (Qiagen, Valencia, Calif.). The ethanol precipitated RNA was resuspended in RNase-free water, quantitated with RiboGreen (Molecular Probes, Eugene, Oreg.). Total RNA was further purified using oligoTex mRNA maxi kit (Qiagen Co.) with the bound mRNA eluted with minimum volume of elution buffer and precipitated with ethanol. The recovery rate of mRNA by the ethanol precipitation method was ˜70%. Cy3- or Cy5-tagged probes were produced from an mRNA mixture (20 μl) of Xenopus mRNA (5 μg) and lambda Q gene mRNA (3.5 ng) reverse-transcribed with oligo(dT)18-22 primer and dNTPs and the reverse-transcribed cDNA was cross-linked with Cy3 or Cy5 as described in Clontech Atlas™ Glass Fluorescent Labeling kit manual (www.clontech.com). After hydrolysis of the RNA and purification of the probe (Centricon 50, Millipore, Bedford, Mass.), the cDNA in TE buffer was quantitated by absorbance at 260 nm. […]

## CCCCCCCCCCCCCC(=O)O[C@@H]1[C@@H](C)[C@@]2(O)[C@@H](C=C(CO)C[C@]3(O)C(=O)C(C)=C[C@@H]23)[C@@H]2C(C)(C)[C@]12OC(C)=O [PMA, phorbol 12-myristate 12-acetate]
PBX0140D01 mRNA
  Normalized by Landmarks (1.59): 3.66
  Normalized by all Data Points (1.28): 2.94
  Ratio of Medians (Cy5/Cy3) First Spot: 2.09
  Ratio of Medians (Cy5/Cy3) Mean: 2.30 ± 0.20
  Ratio of Medians (Cy5/Cy3) Second Spot: 2.50
PBX0140F01 mRNA
  (CY3/CY5) by Landmarks (1.6): 2.39
  (CY3/CY5) by all Data Points (1.3): 3.83
  Normalization by Landmarks (1.6): 0.42
  Normalization by all Data Points (1.3): 0.26
  Ratio of Medians (Cy5/Cy3) First Spot: 0.24
  Ratio of Medians (Cy5/Cy3) Mean: 0.20 ± 0.04
  Ratio of Medians (Cy5/Cy3) Second Spot: 0.16
PBX0140H03 mRNA
  (CY3/CY5) by Landmarks (1.6): 3.52
  (CY3/CY5) by all Data Points (1.3): 5.64
  Normalization by Landmarks (1.6): 0.28
  Normalization by all Data Points (1.3): 0.18
  Ratio of Medians (Cy5/Cy3) First Spot: 0.09
  Ratio of Medians (Cy5/Cy3) Mean: 0.14 ± 0.05
  Ratio of Medians (Cy5/Cy3) Second Spot: 0.19
PBX0141B03 mRNA
  (CY3/CY5) by Landmarks (1.6): 1.74
  (CY3/CY5) by all Data Points (1.3): 2.78
  Normalization by Landmarks (1.6): 0.58
  Normalization by all Data Points (1.3): 0.36
  Ratio of Medians (Cy5/Cy3) First Spot: 0.38
  Ratio of Medians (Cy5/Cy3) Mean: 0.28 ± 0.10
  Ratio of Medians (Cy5/Cy3) Second Spot: 0.18
PBX0141F12 mRNA
  (CY3/CY5) by Landmarks (1.6): 3.56
  (CY3/CY5) by all Data Points (1.3): 5.70
  Normalization by Landmarks (1.6): 0.28
  Normalization by all Data Points (1.3): 0.18
  Ratio of Medians (Cy5/Cy3) First Spot: 0.10
  Ratio of Medians (Cy5/Cy3) Mean: 0.14 ± 0.03
  Ratio of Medians (Cy5/Cy3) Second Spot: 0.17
PBX0141G06 mRNA
  (CY3/CY5) by Landmarks (1.6): 1.67
  (CY3/CY5) by all Data Points (1.3): 2.67
  Normalization by Landmarks (1.6): 0.60
  Normalization by all Data Points (1.3): 0.38
  Ratio of Medians (Cy5/Cy3) First Spot: 0.17
  Ratio of Medians (Cy5/Cy3) Mean: 0.29 ± 0.12
  Ratio of Medians (Cy5/Cy3) Second Spot: 0.41
PBX0141G10 mRNA
  Normalized by Landmarks (1.59): 4.98
  Normalized by all Data Points (1.28): 4.01
  Ratio of Medians (Cy5/Cy3) First Spot: 2.53
  Ratio of Medians (Cy5/Cy3) Mean: 3.13 ± 0.59
  Ratio of Medians (Cy5/Cy3) Second Spot: 3.72
PBX0142E01 mRNA
  (CY3/CY5) by Landmarks (1.6): 2.64
  (CY3/CY5) by all Data Points (1.3): 4.23
  Normalization by Landmarks (1.6): 0.38
  Normalization by all Data Points (1.3): 0.24
  Ratio of Medians (Cy5/Cy3) First Spot: 0.14
  Ratio of Medians (Cy5/Cy3) Mean: 0.18 ± 0.04
  Ratio of Medians (Cy5/Cy3) Second Spot: 0.22
PBX0142E09 mRNA
  Normalized by Landmarks (1.59): 4.32
  Normalized by all Data Points (1.28): 3.48
  Ratio of Medians (Cy5/Cy3) First Spot: 2.50
  Ratio of Medians (Cy5/Cy3) Mean: 2.72 ± 0.21
  Ratio of Medians (Cy5/Cy3) Second Spot: 2.93
PBX0142H06 mRNA
  (CY3/CY5) by Landmarks (1.6): 2.52
  (CY3/CY5) by all Data Points (1.3): 4.04
  Normalization by Landmarks (1.6): 0.40
  Normalization by all Data Points (1.3): 0.25
  Ratio of Medians (Cy5/Cy3) First Spot: 0.15
  Ratio of Medians (Cy5/Cy3) Mean: 0.19 ± 0.04
  Ratio of Medians (Cy5/Cy3) Second Spot: 0.23
PBX0143C01 mRNA
  (CY3/CY5) by Landmarks (1.6): 2.54
  (CY3/CY5) by all Data Points (1.3): 4.07
  Normalization by Landmarks (1.6): 0.39
  Normalization by all Data Points (1.3): 0.25
  Ratio of Medians (Cy5/Cy3) First Spot: 0.16
  Ratio of Medians (Cy5/Cy3) Mean: 0.19 ± 0.03
  Ratio of Medians (Cy5/Cy3) Second Spot: 0.22
PBX0143D10 mRNA
  (CY3/CY5) by Landmarks (1.6): 1.57
  (CY3/CY5) by all Data Points (1.3): 2.51
